From patent US20020026034A1, “3-AMINOETHYL-N-AMIDINO-2,5-DIHYDROPYRROLE DERIVATIVES HAVING ARGININE MIMETIC PROPERTIES” (priority 1995, published 2002)

Columns and labels:
[1] = molecular target: isolated activated GpIIb/IIIa receptor (Homo sapiens, UniProt P05106+P08514); test: GpIIb/IIIa fibrinogen ELISA; settings: fibrinogen binding to coated GpIIb/IIIa receptor; read-out: gpIIb/IIIa-Inhibition IC50
Protocol: The GpIlb/Illa fibrinogen Elisa is a modification of assays which are described in the following literature: Nachman, R. L. & Leung, L. L. K. (1982): J. Clin. Invest. 69: 263-269 and Wright, P. S. et al. (1993): Biochem. J. 293:263-267.
Microtitre plates were coated overnight with 2 μg/ml isolated activated GpIIb/IIIa receptor. After unbound receptor had been removed by washing several times the surface of the plates is blocked with 1% casein and it is washed again. The test substance is added at the required concentrations and the plates are incubated for 10 minutes while shaking. The natural ligand of the gpIIb/IIIa receptor, fibrinogen, is added. After incubating for 1 hour unbound fibrinogen is removed by washing several times and the bound fibrinogen is determined by means of a peroxidase-conjugated, anti-fibrinogen monoclonal antibody by measuring the optical density at 405 nm in an ELISA instrument. The inhibition of a fibrinogen-GpIIb/IIIa interaction results in a low optical density. The IC50 value was determined by a concentration/effect curve.

[2] = molecular target: T1, human thrombin (Homo sapiens, UniProt P00734); test: Thrombin inhibition, kinetic measurement with substrate S-2238; format: biochemical; settings: pH 7 5, 25° C., substrate H-(D)-Phe-Pro-Arg-pNA
T1 construct: purchased Sigma
Protocol: The kinetic measurements were carried out in 0 1 M phosphate buffer which contained 0 2 M sodium chloride and 0 5 % polyethylene glycol 6000 at a pH=7 5 and 25° C. using the substrate H-(D)-Phe-Pro-Arg-pNA (S-2238 Kabi) and human thrombin (Sigma specific activity=2150 NIH-units/mg) in polystyrene semimicrocuvettes in a total volume of 1 ml
Since the measurement curves obtained in both experiments were linear and parallel, the active substance of formula (I) is a rapid thombin inhibitor. The inhibition constant Ki was determined as follows The substrate was added at concentrations of 100 μM. 50 μM. 30 μM, 20 μM and at each substrate concentration a measurement was carried out without inhibitor and three measurements were carried out in the presence of various concentrations of the inhibitor of formula (I). The reactions were started by addition of thrombin. The increase in absorbance at 405 nm caused by the formation of p-nitroanilide was monitored for a time period of 12 min. Measurement points (time versus absorbance) were transferred to a PC at intervals of 20 sec. […] From one measurement series (constant inhibitor concentration, variable substrate concentrations) Km′ and Vmax were determined by a non-linear fit to the equation [formula]
Finally Ki was determined from the total series of measurements by non-linear fit to the equation [formula]

[3] = test system: horse thrombin; test: Thrombin time (citrate plasma, sphere coagulometer); format: biochemical; settings: control thrombin time ca 24 seconds
Protocol: A common test in clinical coagulation diagnostics is the thrombin time. This parameter detects the action of thrombin on fibrinogen and the formation of blood clots. Inhibitors of thrombin result in an increased thrombin time
In order to obtain plasma 9 parts fresh blood from healthy donors are mixed with one part sodium citrate solution (0 11 mol/l) and centrifuged at ca 3000 rpm for 10 min at room temperature, The plasma was removed by pipette and can be stored for ca 8 h at room temperature.
200 μl citrate plasma was incubated for 2 min at 37° C. in a sphere coagulometer (KC10 from the Amelung-Company). 10 μl dimethylsulfoxide (DMSO) or a solution of the active substance in DMSO was added to 190 μl preheated thrombin reagent (Boehringer Mannheim, GmbH. contains ca. 3 U/ml horse thrombin and […]) A stopwatch was started when this 200 μl solution was added to the plasma and the time point at which coagulation starts was determined In the control measurements the thrombin time was ca 24 seconds and was increased by the compound of example 3 depending on the concentration (test concentration/increase of thrombin time 5 μM>300*sec: 0 5 μM/96 sec. 0 05 μM/9 sec) [* the experiment was stopped after 5 minutes]

[4] = molecular target: T2, bovine pancreatic trypsin (Bos taurus, UniProt P00760); test: Inhibition of trypsin; format: biochemical; settings: measured as described for thrombin, Km=45 μM, read-out: inhibition constant Ki
T2 construct: purchased Sigma; host or cells: bovine pancreas
T2 sequence (P00760 24-246): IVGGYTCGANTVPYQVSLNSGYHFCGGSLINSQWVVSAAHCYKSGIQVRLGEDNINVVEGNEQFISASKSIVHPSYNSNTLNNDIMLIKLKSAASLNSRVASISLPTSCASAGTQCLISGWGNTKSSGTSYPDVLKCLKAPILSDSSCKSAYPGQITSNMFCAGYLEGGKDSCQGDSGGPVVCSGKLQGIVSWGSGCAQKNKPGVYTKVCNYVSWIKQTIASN
Protocol: 10 mg bovine pancreatic trypsin (Sigma) was dissolved in […] hydrochloric acid and stored in a refrigerator 20 μl thereof was admixed with 980 ul 1 mM hydrochloric acid. 25 μl thereof was used for each measurement. The measurement was carried out as described for thrombin. Km=45 μM.

Sequence of isolated activated GpIIb/IIIa receptor (P08514 32-887 limits assumed): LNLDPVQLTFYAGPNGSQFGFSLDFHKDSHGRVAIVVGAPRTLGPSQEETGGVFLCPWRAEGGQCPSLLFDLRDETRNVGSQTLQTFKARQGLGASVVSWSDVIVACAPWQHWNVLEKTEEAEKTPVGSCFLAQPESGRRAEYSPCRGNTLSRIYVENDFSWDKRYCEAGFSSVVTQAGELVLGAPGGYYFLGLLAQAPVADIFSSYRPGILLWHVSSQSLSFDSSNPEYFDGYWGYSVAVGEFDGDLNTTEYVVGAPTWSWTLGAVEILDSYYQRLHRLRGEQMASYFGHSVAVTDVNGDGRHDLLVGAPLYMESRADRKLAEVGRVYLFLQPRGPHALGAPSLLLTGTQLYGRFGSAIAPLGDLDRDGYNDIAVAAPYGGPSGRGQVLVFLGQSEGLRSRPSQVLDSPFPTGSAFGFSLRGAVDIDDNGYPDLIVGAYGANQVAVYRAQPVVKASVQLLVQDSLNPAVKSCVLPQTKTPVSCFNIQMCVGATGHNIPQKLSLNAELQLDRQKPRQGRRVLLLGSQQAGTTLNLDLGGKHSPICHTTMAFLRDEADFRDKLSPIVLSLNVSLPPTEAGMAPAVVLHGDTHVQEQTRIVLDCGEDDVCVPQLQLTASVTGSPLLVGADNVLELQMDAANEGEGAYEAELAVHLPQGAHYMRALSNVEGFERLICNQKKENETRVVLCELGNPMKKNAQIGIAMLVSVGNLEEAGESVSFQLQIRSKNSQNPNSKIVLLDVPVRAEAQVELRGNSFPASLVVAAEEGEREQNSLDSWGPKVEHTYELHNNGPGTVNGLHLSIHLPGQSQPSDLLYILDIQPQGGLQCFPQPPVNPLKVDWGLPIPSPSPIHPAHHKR
Sequence of isolated activated GpIIb/IIIa receptor (P08514 891-1039 partner limits assumed): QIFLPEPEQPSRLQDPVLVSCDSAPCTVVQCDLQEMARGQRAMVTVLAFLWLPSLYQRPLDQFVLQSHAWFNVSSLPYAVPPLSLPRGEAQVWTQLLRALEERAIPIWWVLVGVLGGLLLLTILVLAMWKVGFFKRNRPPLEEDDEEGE
Sequence of isolated activated GpIIb/IIIa receptor (P05106 27-788): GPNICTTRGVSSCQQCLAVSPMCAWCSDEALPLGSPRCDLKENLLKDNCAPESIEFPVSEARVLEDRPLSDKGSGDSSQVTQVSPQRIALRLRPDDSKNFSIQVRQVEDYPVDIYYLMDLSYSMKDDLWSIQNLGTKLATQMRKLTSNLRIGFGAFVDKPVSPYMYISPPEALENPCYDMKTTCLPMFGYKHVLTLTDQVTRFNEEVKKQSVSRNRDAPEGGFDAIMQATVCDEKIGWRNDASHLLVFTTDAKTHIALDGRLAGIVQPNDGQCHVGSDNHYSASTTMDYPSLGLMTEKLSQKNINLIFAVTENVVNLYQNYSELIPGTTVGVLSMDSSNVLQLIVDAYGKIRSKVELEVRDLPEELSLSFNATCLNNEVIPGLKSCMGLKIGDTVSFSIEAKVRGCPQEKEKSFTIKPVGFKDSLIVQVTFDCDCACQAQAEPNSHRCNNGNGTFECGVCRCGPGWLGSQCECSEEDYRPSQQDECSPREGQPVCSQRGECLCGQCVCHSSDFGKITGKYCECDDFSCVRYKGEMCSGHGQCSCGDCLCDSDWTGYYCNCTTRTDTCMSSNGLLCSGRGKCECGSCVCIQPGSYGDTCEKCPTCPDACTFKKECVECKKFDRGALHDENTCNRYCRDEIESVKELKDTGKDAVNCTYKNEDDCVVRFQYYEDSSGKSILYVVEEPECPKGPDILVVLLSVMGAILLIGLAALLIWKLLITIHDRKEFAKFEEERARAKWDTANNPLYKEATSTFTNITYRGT

With N=C(N)N1CC=C(CC(N)C(=O)NCC(=O)N[C@@H](CC(=O)O)C(=O)N[C@@H](Cc2ccccc2)C(N)=O)C1 (stereo partly drawn) [Example 11, Ada-Gly-Asp-Phe-NH2] as the compound, how does the IC50 [1] read?
Its IC50 is 12.8 µM.

CN[C@H](Cc1ccccc1)C(=O)N1CCC[C@H]1C(=O)NCCC1=CCN(C(=N)N)C1 [Example 4] was tested. Which “thrombin inhibition (in words)” value [2] did it give?
Its value is “inhibits thrombin”.

How did the “increase of thrombin time” value ([3]; test concentration 0 05 μM) turn out when “HOOC—CH2-D-Cha-(N-cyclopentyl)-Gly-Adc [Example 3]” was run?
Its value is 9 s.

And the “increase of thrombin time” value ([3]; test concentration 0 5 μM)?
Its value is 96 s.

And the “increase of thrombin time” value ([3]; test concentration 5 μM, experiment stopped after 5 minutes)?
Its value is > 300 s.

Which Ki [4] does the source give for N=C(N)N1CC=C(CCNC(=O)[C@@H]2C[C@@H]3CC[C@@H](O)C[C@@H]3N2C(=O)[C@@H](Cc2ccccc2)NC(=O)[C@H](O)Cc2ccccc2)C1 [Example 1, D-Pla-D-Phe-L-Choi-Adc] here?
Its Ki is 100 nM.
